The source of these data is US9567342B2, “Certain protein kinase inhibitors” (SHANGHAI FOCHON PHARMACEUTICAL CO., LTD., priority 2012, dated 2017).

The term IC50 denotes the concentration that inhibits the measured activity by half. Read a low IC50 as higher potency.

This assay concerns SU-DHL-1 cells. Put plainly: Inhibition activity of cell proliferation (CCK-8 assay). In kind it is cell-based. Conditions: Homo sapiens, 72 h exposure. The method, then: SU-DHL-1 cells were seeded in 96-well tissue culture plates. On the next day, cells were exposed to various concentrations of compounds and further cultured for 72 h. Cell proliferation was then determined using Cell Counting Kit-8 [(CCK-8), Dojindo]assay. Briefly, add 10 μL of the CCK-8 solution to each well of the plate. Incubate the plate for 1-4 hours in the incubator. Measure the absorbance at 450 nm using a multi-well spectrophotometer (SpectraMAX 190, Molecular Devices). The inhibition rate (%) was calculated using the following equation: [1−(A450 Compound/A450 Control)]×100%. IC50 values were calculated according to inhibition curve by four-parameter fit.

A value given as a limit tells only on which side of the number the result lay.

Consider `COCCN1CCC(c2c(C)cc(Nc3ncc(Cl)c(Nc4ccccc4S(=O)(=O)C(C)C)n3)c3c2C[C@H](C)O3)CC1` [Example 31, (S)-5-chloro-N-4-(2-(isopropylsulfonyl)phenyl)-N-2-(4-(1-(2-methoxyethyl)piperidin-4-yl)-2,5-dimethyl-2,3-dihydrobenzofuran-7-yl)pyrimidine-2,4-diamine], for which the 50% inhibitory concentration (IC50) came out at 74.5 nM.
`Cc1cc(Nc2ncc(Cl)c(Nc3ccccc3S(=O)(=O)C(C)C)n2)c2c(c1C1CCN(C(=O)[C@@H](C)O)CC1)C[C@@H](C)O2` [Example 39, (R)-1-(4-((R)-7-((5-chloro-4-((2-(isopropylsulfonyl)phenyl)amino)pyrimidin-2-yl)amino)-2,5-dimethyl-2,3-dihydrobenzofuran-4-yl)piperidin-1-yl)-2-hydroxypropan-1-one]: the midpoint of inhibition, the IC50, lay at 10.3 nM.
The result for `Cc1cc(Nc2ncc(Cl)c(Nc3ccccc3S(=O)(=O)C(C)C)n2)c2c(c1C1CCN(CC(=O)N(C)C)CC1)C[C@H](C)O2` [Example 27, (S)-2-(4-(7-((5-chloro-4-((2-(isopropylsulfonyl)phenyl)amino)pyrimidin-2-yl)amino)-2,5-dimethyl-2,3-dihydrobenzofuran-4-yl)piperidin-1-yl)-N,N-dimethylacetamide] reads 37.2 nM.
Take `Cc1cc(Nc2ncc(Cl)c(Nc3ccccc3S(=O)(=O)C(C)C)n2)c2c(c1C1CCN(C[C@H](C)O)CC1)C[C@H](C)O2` [Example 36, (S)-1-(4-((S)-7-((5-chloro-4-((2-(isopropylsulfonyl)phenyl)amino)pyrimidin-2-yl)amino)-2,5-dimethyl-2,3-dihydrobenzofuran-4-yl)piperidin-1-yl)propan-2-ol]: the IC50 was 26.2 nM.
Compound `CCS(=O)(=O)N1CCC(c2c(C)cc(Nc3ncc(Cl)c(Nc4ccccc4S(=O)(=O)C(C)C)n3)c3c2C[C@@H](C)O3)CC1` [Example 52, (R)-5-chloro-N-2-(4-(1-(ethylsulfonyl)piperidin-4-yl)-2,5-dimethyl-2,3-dihydrobenzofuran-7-yl)-N-4-(2-(isopropylsulfonyl)phenyl)pyrimidine-2,4-diamine] registered a half-maximal inhibitory concentration (IC50) of 59 nM.
In turn, `CNCC(=O)N1CCC(c2c(C)cc(Nc3ncc(Cl)c(Nc4ccccc4S(=O)(=O)C(C)C)n3)c3c2C[C@H](C)O3)CC1` [Example 44, (S)-1-(4-(7-((5-chloro-4-((2-(isopropylsulfonyl)phenyl)amino)pyrimidin-2-yl)amino)-2,5-dimethyl-2,3-dihydrobenzofuran-4-yl)piperidin-1-yl)-2-(methylamino)ethanone] registered an IC50 of 264 nM.
Compound `Cc1cc(Nc2nc(Nc3ccccc3S(=O)(=O)C(C)C)c3c(C)n[nH]c3n2)c2c(c1C1CCNCC1)CCO2` [Example 1] yielded an IC50 of 25.5 nM.
Next, `Cc1cc(Nc2ncc(Cl)c(Nc3ccccc3S(=O)(=O)C(C)C)n2)c2c(c1C1CCN(S(C)(=O)=O)CC1)C[C@@H](C)O2` [Example 18]: 15.9 nM; `CO[C@@H](C)C(=O)N1CCC(c2c(C)cc(Nc3ncc(Cl)c(Nc4ccccc4S(=O)(=O)C(C)C)n3)c3c2C[C@@H](C)O3)CC1` [Example 57, (S)-1-(4-((R)-7-((5-chloro-4-((2-(isopropylsulfonyl)phenyl)amino)pyrimidin-2-yl)amino)-2,5-dimethyl-2,3-dihydrobenzofuran-4-yl)piperidin-1-yl)-2-methoxypropan-1-one]: 32.8 nM; `Cc1cc(Nc2ncc(Cl)c(Nc3ccccc3S(=O)(=O)C(C)C)n2)c2c(c1C1CCNCC1)C[C@H](C)O2` [Example 11, (S)-5-chloro-N-2-(2,5-dimethyl-4-(piperidin-4-yl)-2,3-dihydrobenzofuran-7-yl)-N-4-(2-(isopropylsulfonyl)phenyl)pyrimidine-2,4-diamine]: less than 4.1 nM.
The result for `Cc1cc(Nc2ncc(Cl)c(Nc3ccccc3S(=O)(=O)C(C)C)n2)c2c(c1C1CCN(C(=O)[C@H](C)N)CC1)C[C@H](C)O2` [Example 21, (S)-2-amino-1-(4-((S)-7-((5-chloro-4-((2-(isopropylsulfonyl)phenyl)amino)pyrimidin-2-yl)amino)-2,5-dimethyl-2,3-dihydrobenzofuran-4-yl)piperidin-1-yl)propan-1-one] reads 68.6 nM; that for `CCOC(=O)CN1CCC(c2c(C)cc(Nc3ncc(Cl)c(Nc4ccccc4S(=O)(=O)C(C)C)n3)c3c2C[C@H](C)O3)CC1` [Example 41, (S)-ethyl 2-(4-(7-((5-chloro-4-((2-(isopropylsulfonyl)phenyl)amino)pyrimidin-2-yl)amino)-2,5-dimethyl-2,3-dihydrobenzofuran-4-yl)piperidin-1-yl)acetate], 43.2 nM; that for `Cc1cc(Nc2ncc(Cl)c(Nc3ccccc3S(=O)(=O)C(C)C)n2)c2c(c1C1CCN(C(=O)CN(C)C)CC1)C[C@H](C)O2` [Example 45, (S)-1-(4-(7-((5-chloro-4-((2-(isopropylsulfonyl)phenyl)amino)pyrimidin-2-yl)amino)-2,5-dimethyl-2,3-dihydrobenzofuran-4-yl)piperidin-1-yl)-2-(dimethylamino)ethanone], 39.5 nM.
`CC(=O)N1CCC(c2c(C)cc(Nc3ncc(Cl)c(Nc4ccccc4S(=O)(=O)C(C)C)n3)c3c2C[C@H](C)O3)CC1` [Example 15, (S)-1-(4-(7-((5-chloro-4-((2-(isopropylsulfonyl)phenyl)amino)pyrimidin-2-yl)amino)-2,5-dimethyl-2,3-dihydrobenzofuran-4-yl)piperidin-1-yl)ethanone] returned an IC50 of 38.2 nM.
In turn, `Cc1cc(Nc2ncc(Cl)c(Nc3ccccc3S(=O)(=O)C(C)C)n2)c2c(c1C1CCN(CC(=O)O)CC1)C[C@@H](C)O2` [Example 20, (R)-2-(4-(7-((5-chloro-4-((2-(isopropylsulfonyl)phenyl)amino)pyrimidin-2-yl)amino)-2,5-dimethyl-2,3-dihydrobenzofuran-4-yl)piperidin-1-yl)acetic acid] gave a half-inhibitory concentration (IC50) of 61.9 nM.
The result for `Cc1cc(Nc2ncc(Cl)c(Nc3ccccc3S(=O)(=O)C(C)C)n2)c2c(c1C1CCN(C[C@H](C)O)CC1)C[C@@H](C)O2` [Example 24, (S)-1-(4-((R)-7-((5-chloro-4-((2-(isopropylsulfonyl)phenyl)amino)pyrimidin-2-yl)amino)-2,5-dimethyl-2,3-dihydrobenzofuran-4-yl)piperidin-1-yl)propan-2-ol] reads 8.3 nM; that for `Cc1cc(Nc2ncc(Cl)c(Nc3ccccc3S(=O)(=O)C(C)C)n2)c2c(c1C(=O)N1CCNCC1)C[C@H](C)O2` [Example 46, (S)-(7-((5-chloro-4-((2-(isopropylsulfonyl)phenyl)amino)pyrimidin-2-yl)amino)-2,5-dimethyl-2,3-dihydrobenzofuran-4-yl)(piperazin-1-yl)methanone], 114 nM; that for `Cc1cc(Nc2nc(Nc3ccccc3S(=O)(=O)C(C)C)c3c(C)n[nH]c3n2)c2c(c1C1CCN(C)CC1)C[C@H](C)O2` [Example 6], 34.6 nM.
The result for `Cc1cc(Nc2ncc(Cl)c(Nc3ccccc3S(=O)(=O)C(C)C)n2)c2c(c1C1CCN(S(=O)(=O)C(C)C)CC1)C[C@@H](C)O2` [Example 53] reads 110 nM; that for `Cc1cc(Nc2ncc(Cl)c(Nc3ccccc3S(=O)(=O)C(C)C)n2)c2c(c1C1CCN(CC(=O)O)CC1)C[C@H](C)O2` [Example 19, (S)-2-(4-(7-((5-chloro-4-((2-(isopropylsulfonyl)phenyl)amino)pyrimidin-2-yl)amino)-2,5-dimethyl-2,3-dihydrobenzofuran-4-yl)piperidin-1-yl)acetic acid], 4.9 nM; that for `Cc1cc(Nc2ncc(Cl)c(Nc3ccccc3S(=O)(=O)C(C)C)n2)c2c(c1C1CCN(C(=O)C3CC3)CC1)C[C@@H](C)O2` [Example 51, (R)-(4-(7-((5-chloro-4-((2-(isopropylsulfonyl)phenyl)amino)pyrimidin-2-yl)amino)-2,5-dimethyl-2,3-dihydrobenzofuran-4-yl)piperidin-1-yl)(cyclopropyl)methanone], 52.4 nM.
`Cc1cc(Nc2ncc(Cl)c(Nc3ccccc3S(=O)(=O)C(C)C)n2)c2c(c1C1CCN(CC(=O)N(C)C)CC1)C[C@@H](C)O2` [Example 28, (R)-2-(4-(7-((5-chloro-4-((2-(isopropylsulfonyl)phenyl)amino)pyrimidin-2-yl)amino)-2,5-dimethyl-2,3-dihydrobenzofuran-4-yl)piperidin-1-yl)-N,N-dimethylacetamide] yielded an IC50 of 46.6 nM.
With `Cc1cc(Nc2ncc(Cl)c(Nc3ccccc3S(=O)(=O)C(C)C)n2)c2c(c1C1CCN(CCO)CC1)C[C@H](C)O2` [Example 34, (S)-2-(4-(7-((5-chloro-4-((2-(isopropylsulfonyl)phenyl)amino)pyrimidin-2-yl)amino)-2,5-dimethyl-2,3-dihydrobenzofuran-4-yl)piperidin-1-yl)ethanol], it took 12.3 nM to reach half-maximal inhibition (IC50).
In turn, `Cc1cc(Nc2ncc(Cl)c(Nc3ccccc3S(=O)(=O)C(C)C)n2)c2c(c1C1CCN(CCS(C)(=O)=O)CC1)C[C@H](C)O2` [Example 29] displayed a half-inhibitory concentration (IC50) of 64.7 nM.
As for `CO[C@H](C)C(=O)N1CCC(c2c(C)cc(Nc3ncc(Cl)c(Nc4ccccc4S(=O)(=O)C(C)C)n3)c3c2C[C@@H](C)O3)CC1` [Example 56, (R)-1-(4-((R)-7-((5-chloro-4-((2-(isopropylsulfonyl)phenyl)amino)pyrimidin-2-yl)amino)-2,5-dimethyl-2,3-dihydrobenzofuran-4-yl)piperidin-1-yl)-2-methoxypropan-1-one], half-maximal inhibition (IC50) required 26.3 nM.
In turn, `Cc1cc(Nc2ncc(Cl)c(Nc3ccccc3S(=O)(=O)C(C)C)n2)c2c(c1C1CCN(S(=O)(=O)C3CC3)CC1)C[C@@H](C)O2` [Example 54, (R)-5-chloro-N-2-(4-(1-(cyclopropylsulfonyl)piperidin-4-yl)-2,5-dimethyl-2,3-dihdyrobenzofuran-7-yl)-N-4-(2-(isopropylsulfonyl)phenyl)pyrimidine-2,4-diamine] gave an IC50 of 333 nM.
